≈ marks a conversion by molar mass, not a printed value. Like-named read-outs stand apart in the source and are kept apart here.
Key:
[1] = Stability in Mycobacterium smegmatis homogenate (enzymatic hydrolysis); conditions: pH 7.4; for half-life at 500 µM: mycobacterium smegmatis homogenate; for half-life: Mycobacterium smegmatis
[2] = system: Mycobacterium smegmatis homogenate; test: as above; conditions: Mycobacterium smegmatis homogenate, 37°C
[3] = system: human monocytic cell line THP-1 (ATCC56 TIB202); test: Cytotoxicity assay in THP-1 cells; assay type: cell-based; conditions: toxicity/activity index: ratio LC50 (THP-1) / MIC (M. tuberculosis H37Rv)
From the text: (§1) Cytotoxicity results were obtained through lethal concentration for 50% of the cell population, LC50. Table 6. Results obtained from cytotoxicity assays for the esters, represented by LD50 in µg/mL and comparison with MIC values, in µg/mL with toxicity/activity (T/A) index.
(§2) The T/A index quantitatively is the ratio between the lethal concentration (LC50) given by the minimum inhibitory concentration (MIC).

[4] = Cytotoxicity assay in THP-1 cells; assay type: cell-based, human; conditions: human, THP-1 cells, read-out: LC50 (the source's name)
From the text: as §1, §2

[5] = Chemical stability in phosphate buffer pH 7.4
Protocol: (§3) Chemical hydrolysis was evaluated in phosphate buffer at physiological pH (7.4) to determine its influence in enzymatic studies.
(§4) 1176 µL pH 7.4 phosphate buffer or pH 5.9 phosphate buffer, 18 µL ACN and 6 µL of a 10-1 M stock solution of the prodrug in ACN were mixed in a 2mL vial. The solution was incubated at 37 °C and 50 µL aliquots were removed, mixed with 450 µL of ACN: H2O 1:1. The solution was analysed by HPLC, the remaining substrate and the correspondent acid were both measured.
(§5) The eluant was a mixture of acetonitrile (60%/70%) and aqueous phosphate buffer with 5% of KH2PO4/H3PO4 0.025M (40%/30%). The flow rate was always 1 mL/1 min and wavelength was set at 230 nm. All quantifications were evaluated using calibration curves from stock solutions.
(§6) The initial substrate concentration was 5 x 10^-4 M in all stability assays. All incubations were carried out at pH 7.4 and 37 °C under agitation using the phosphate buffer described above as diluting agent. […] Acetonitrile (2%) was used in all studies to ensure adequate solubilization of the substrates.

M. bovis BCG = test: microbe, parasite or virus in culture; assay type: cell-based; conditions: Mycobacterium tuberculosis variant bovis BCG
[6] = Stability in human plasma (enzymatic hydrolysis)
Protocol: The studies of stability in human plasma were performed in human plasma diluted to 80% with phosphate buffer pH 7.4 of total concentration 0.05 M and ionic strength 0.15 M at 37°C. […] Study of enzymatic hydrolysis. […] Initial substrate concentration (ester) - 5×10^-4M with 2% ACN.
Pooled human plasma (960 µL), pH 7.4 phosphate buffered saline (216 µL), 18 µL ACN and 6 µL of a 10-1 M stock solution of the prodrug in ACN were mixed in a 2mL vial. The suspensions were incubated at 37 °C and 50 µL aliquots were removed, mixed with 450 µL of ACN: ZnSO4 1% 1:1 and centrifuged. The supernatant was removed and analysed by HPLC, the remaining substrate and the correspondent acid measured.
Two HPLC systems were used. The buffer and plasma stability studies were performed in an HPLC system with a photodiode detector L-3000 Photo Diode Array Detector, Merck-Hitachi L-6000 pump, Merck-Hitachi D-2500 integrator, and Merck RP-8 column. […] The eluant was a mixture of acetonitrile (60%/70%) and aqueous phosphate buffer with 5% of KH2PO4/H3PO4 0.025M (40%/30%). The flow rate was always 1 mL/1 min and wavelength was set at 230 nm. All quantifications were evaluated using calibration curves from stock solutions.
The initial substrate concentration was 5 x 10^-4 M in all stability assays. All incubations were carried out at pH 7.4 and 37 °C under agitation using the phosphate buffer described above as diluting agent. […] Acetonitrile (2%) was used in all studies to ensure adequate solubilization of the substrates. The benzoates were added from 10 to 1M acetonitrile stock solutions. After incubation, aliquots of 50 µL were taken into vials containing 450 µL of a 1:1 solution of 1% zinc sulfate and acetonitrile, mixed in a vortex and centrifuged for 10 min at 15,000 rpm. The supernatant was then injected into the HPLC and analysed for quantification of benzoic acid and remaining benzoate. All quantifications were performed using calibration curves.

[7] = system: Mycobacterium tuberculosis H37Rv; test: MIC and MBC by broth microdilution against M. tuberculosis H37Rv; assay type: cell-based, Mycobacterium tuberculosis H37Rv (ATCC 27294)
[8] = pH 7.4
Protocol: as §3, §4, §5, §6

[9] = system: Mycobacterium Bovis BCG infecting human macrophages THP-1; assay type: cell-based; conditions: compound concentration 2 µg/ml
M. smegmatis mc2 155 = test: MIC and MBC against M. smegmatis; assay type: cell-based; conditions: Mycolicibacterium smegmatis, MC2155
[10] = lethal concentration for 50% of the cell population
[11] = Mycobacterium tuberculosis, H37RV, M. tuberculosis H37Rv, Table 3
[12] = Mycobacterium tuberculosis, H37RV, M. tuberculosis H37Rv, Tables 3, 6 and 7
[13] = Mycobacterium tuberculosis, H37RV, M. tuberculosis H37Rv, Table 3, read-out: MBC
[14] = Mycobacterium tuberculosis, H37RV, M. tuberculosis H37Rv, Tables 3, 6 and 7, read-out: MIC
[15] = THP-1 monocytic cells, lethal concentration for 50% of the cell population
[16] = Mycobacterium tuberculosis, H37RV, M. tuberculosis H37Rv, Table 4
[17] = Mycobacterium tuberculosis, H37RV

| Compound | half-life at 500 µM [1] | Degradation (%) 24h [2] | Degradation (%) 48h [2] | T/A [3] | CC50 [4, 10] | Degradation (%) 24h [5] | Degradation (%) 48h [5] | Degradation (%) 72h [5] | Degradation (%) 168h [5] | Degradation (%) 332h [5] | Degradation (%) 24h [6] | Degradation (%) 48h [6] | Degradation (%) 72h [6] | MBC [7, 13] | MIC [7, 14] | other results |
| --- | --- | --- | --- | --- | --- | --- | --- | --- | --- | --- | --- | --- | --- | --- | --- | --- |
| CCCCNC(=O)c1cc([N+](=O)[O-])cc([N+](=O)[O-])c1 [Compound 7a, N-butyl-3.5-dinitrobenzamide] | 22.9 ± 1.5 h | 52% | 77% | 52 | 26 µg/mL (≈ 97.3 µM) | 0% | 0% | 0% | 0% | 0% | 0% | 0% | 0% | – | – | MBC (M. bovis BCG): 1 µg/mL (≈ 3.74 µM); MIC (M. bovis BCG): 0.5 µg/mL (≈ 1.87 µM) |
| CCCCCCCCCCCCOC(=O)c1ccc([N+](=O)[O-])cc1 [Compound 2e] | 79.4 ± 4.7 h | 19% | 34% | – | – | – | – | – | – | – | – | – | – | – | – | MBC [7, 11]: 64 µg/mL (≈ 191 µM); MIC [7, 12]: 8 µg/mL (≈ 23.8 µM); Degradation (%) 24h [8]: 0%; Degradation (%) 48h [8]: 0%; Degradation (%) 72h [8]: 0%; Degradation (%) 168h [8]: 1%; Degradation (%) 332h [8]: 1% |
| CCCCNC(=O)c1cc([N+](=O)[O-])cc(C(F)(F)F)c1 [Compound 8a, N-butyl-3-nitro-5-(trifluoromethyl)-benzamide] | – | 23% | 41% | 21 | – | 0% | 0% | 0% | 0% | 0% | 0% | 0% | 0% | 2 µg/mL (≈ 6.89 µM) | 2 µg/mL (≈ 6.89 µM) | half-life [1]: 63.8 ± 4.1 h; CC50 [4, 15]: 41 µg/mL (≈ 141 µM) |
| CCCCCCCCCCNC(=O)c1cc([N+](=O)[O-])cc([N+](=O)[O-])c1 [Compound 7d, N-decyl-3.5-dinitrobenzamide] | – | 1% | 2% | 841 | 53 µg/mL (≈ 151 µM) | – | – | – | – | – | – | – | – | – | – | CFU x10^4 ([9]; Time 0 days): 9.2 CFUs per mL; CFU x10^4 ([9]; Time 1 day): 7.33 CFUs per mL; CFU x10^4 ([9]; Time 3 days): 0.32 CFUs per mL; CFU x10^4 ([9]; Time 7 days): 0.03 CFUs per mL; MBC [7, 11]: 0.063 µg/mL (≈ 0.179 µM); MBC [7, 16]: ≤ 0.5 µg/mL; MIC [7, 16]: ≤ 0.5 µg/mL; MIC [7, 12]: 0.063 µg/mL (≈ 0.179 µM); MBC (M. smegmatis mc2 155): 1 µg/mL (≈ 2.85 µM); MIC (M. smegmatis mc2 155): 1 µg/mL (≈ 2.85 µM); MBC (M. bovis BCG): 0.062 µg/mL (≈ 0.176 µM); MIC (M. bovis BCG): 0.062 µg/mL (≈ 0.176 µM) |
| CCCCOC(=O)c1ccc([N+](=O)[O-])cc1 [Compound 2a] | 3.46 ± 0.49 h | 99% | 100% | – | – | – | – | – | – | – | – | – | – | – | – | MBC [7, 11]: 128 µg/mL (≈ 573 µM); MIC [7, 12]: 64 µg/mL (≈ 287 µM); Degradation (%) 24h [8]: 0%; Degradation (%) 48h [8]: 1%; Degradation (%) 72h [8]: 1%; Degradation (%) 168h [8]: 2%; Degradation (%) 332h [8]: 4% |
| CCCCOC(=O)c1cc([N+](=O)[O-])cc([N+](=O)[O-])c1 [Compound 3a] | 6.32 ± 0.44 h | 93% | 99% | 14 | 456 µg/mL (≈ 1700 µM) | 10% | 14% | 18% | 40% | 65% | 86% | 98% | 100% | – | – | MBC [7, 17]: 128 µg/mL (≈ 477 µM); MIC [7, 17]: 32 µg/mL (≈ 119 µM) |
| CCCCCCCCOC(=O)c1ccc([N+](=O)[O-])cc1 [Compound 2c, Octyl 4-nitrobenzoate] | – | 35% | 58% | 82 | – | 0% | 1% | 1% | 3% | 6% | 100% | 100% | 100% | 128 µg/mL (≈ 458 µM) | 8 µg/mL (≈ 28.6 µM) | half-life [1]: 39 ± 7.7 h; CC50 [4, 15]: 657 µg/mL (≈ 2350 µM) |
| CCCCCCOC(=O)c1cc([N+](=O)[O-])cc([N+](=O)[O-])c1 [Compound 3b] | 80.9 ± 5.5 h | 19% | 34% | 17 | 528 µg/mL (≈ 1780 µM) | – | – | – | – | – | 74% | 93% | 98% | – | – | CFU x10^4 ([9]; Time 0 days): 9.2 CFUs per mL; CFU x10^4 ([9]; Time 1 day): 14.58 CFUs per mL; CFU x10^4 ([9]; Time 3 days): 11.87 CFUs per mL; CFU x10^4 ([9]; Time 7 days): 9.83 CFUs per mL |
| CCCCCCCCOC(=O)c1ccccc1 [Compound 1c, Octyl benzoate] | 1.96 ± 0.02 h | 100% | 100% | 6 | 1650 µg/mL (≈ 7020 µM) | 0% | 0% | 0% | 0% | 0% | 45% | 71% | 84% | > 256 µg/mL | 256 µg/mL (≈ 1090 µM) | – |
| CCCCOC(=O)c1cc([N+](=O)[O-])cc(C(F)(F)F)c1 [Compound 4a, Butyl 3-nitro-5-(trifluoromethyl)benzoate] | – | 95% | 100% | 0.54 | – | 5% | 12% | 16% | 35% | 60% | 95% | 100% | 100% | 1020 µg/mL (≈ 3520 µM) | 1020 µg/mL (≈ 3520 µM) | half-life [1]: 5.36 ± 0.44 h; CC50 [4, 15]: 552 µg/mL (≈ 1900 µM) |
| CCCCCCCCCCCCCCCCNC(=O)c1cc([N+](=O)[O-])cc([N+](=O)[O-])c1 [Compound 7g, N-hexadecyl-3.5-dinitrobenzamide] | – | 0% | 0% | – | – | – | – | – | – | – | – | – | – | – | – | MBC ([7]; M. tuberculosis H37Rv, Table 4): 2 µg/mL (≈ 4.59 µM); MIC ([7]; M. tuberculosis H37Rv, Table 4): 2 µg/mL (≈ 4.59 µM); MBC [7, 17]: 2 µg/mL (≈ 4.59 µM); MIC [7, 17]: 2 µg/mL (≈ 4.59 µM); MBC (M. smegmatis mc2 155): > 64 µg/mL; MIC (M. smegmatis mc2 155): 32 µg/mL (≈ 73.5 µM); CC50 ([4]; n/d (no toxicity at maximum tested dose)): > 512 µg/mL; MBC (M. bovis BCG): 4 µg/mL (≈ 9.18 µM); MIC (M. bovis BCG): 2 µg/mL (≈ 4.59 µM) |

Reference: patent EP4345091A1, “BENZOIC ACID DERIVATIVES, METHODS AND USES THEREOF” (priority 2022, dated 2024)
